Experimental data reported in US9249145B2, “Heterocyclic derivatives of pyrazol-4-yl-pyrrolo[2,3-d]pyrimidines as janus kinase inhibitors” (Incyte Holdings Corporation, priority 2009, dated 2016).
Counter-ions that a name gives are not always drawn. Like-named read-outs stand apart in the source and are kept apart here.

What was measured:
[1] = target: T1, human JAK1 (a.a. 837-1142) (Homo sapiens, UniProt P23458); assay: In vitro JAK kinase assay (HTRF, phosphorylation of biotinylated peptide), JAK1; assay type: biochemical; settings: 1 mM ATP, read-out: JAK1 IC50 (nM) @ 1 mM ATP
T1 construct: The catalytic domains of human JAK1 (a.a. 837-1142); His tag (N); made in house; host or cells: insect cells (baculovirus)
Summary of the method: (§1)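 His-tagged catalytic domains expressed in baculovirus/insect cells; biotinylated peptide (500 nM) phosphorylation in 50 mM Tris pH 7.8, 100 mM NaCl, 5 mM DTT, 0.01% BSA, 1 h room temperature. ATP at Km (JAK1 90 μM, JAK2 30 μM) or 1 mM. EDTA stop, Eu-Py20/SA-APC HTRF read; IC50.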

Jak2 (a.a. 828-1132) = target: T2, Jak2 (a.a. 828-1132) (Homo sapiens, UniProt O60674); assay: In vitro JAK kinase assay (HTRF, phosphorylation of biotinylated peptide), JAK2; assay type: biochemical; settings: 1 mM ATP, read-out: JAK2 IC50 (nM) @ 1 mM ATP
T2 construct: Jak2 (a.a. 828-1132); His tag (N); made in house; host or cells: insect cells (baculovirus)
Summary of the method: as §1

T2 sequence (O60674 828-1132): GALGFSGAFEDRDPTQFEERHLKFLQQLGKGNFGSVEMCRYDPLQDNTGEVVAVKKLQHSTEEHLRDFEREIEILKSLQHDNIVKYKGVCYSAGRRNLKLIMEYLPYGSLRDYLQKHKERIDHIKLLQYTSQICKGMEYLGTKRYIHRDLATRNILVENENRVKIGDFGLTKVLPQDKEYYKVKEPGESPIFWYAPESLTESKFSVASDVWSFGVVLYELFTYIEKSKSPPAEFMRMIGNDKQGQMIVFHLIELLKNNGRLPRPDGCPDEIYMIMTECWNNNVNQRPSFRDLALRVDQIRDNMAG
T1 sequence (P23458 849-1154): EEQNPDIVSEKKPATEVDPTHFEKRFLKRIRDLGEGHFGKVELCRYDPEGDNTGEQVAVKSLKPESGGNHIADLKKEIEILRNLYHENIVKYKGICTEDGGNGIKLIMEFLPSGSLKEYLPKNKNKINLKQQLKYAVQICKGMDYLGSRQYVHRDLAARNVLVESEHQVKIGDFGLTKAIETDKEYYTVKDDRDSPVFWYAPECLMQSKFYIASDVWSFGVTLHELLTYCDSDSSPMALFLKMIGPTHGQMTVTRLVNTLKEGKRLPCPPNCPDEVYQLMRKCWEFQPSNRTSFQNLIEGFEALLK

Compound	IC50 ([1]; Examples 92-162)	IC50 (Jak2 (a.a. 828-1132); Examples 92-162)	IC50 ([1]; Examples 12-91)	IC50 (Jak2 (a.a. 828-1132); Examples 12-91)
Cc1c(Nc2cccc(F)c2F)ncnc1N1CCC(C(CC#N)n2cc(-c3ncnc4[nH]ccc34)cn2)CC1 (stereo not shown) [Example 153, 3-(4-(7H-pyrrolo[2,3-d]pyrimidin-4-yl)-1H-pyrazol-1-yl)-3-(1-(6-(2,3-difluorophenylamino)-5-methylpyrimidin-4-yl)piperidin-4-yl)propanenitrile]	20 to 50 nM	> 100 nM	–	–
N#CCC(CN1CCN(C(=O)c2cc(Cl)cc(OC(F)(F)F)c2)CC1)n1cc(-c2ncnc3[nH]ccc23)cn1 (stereo not shown) [Example 53, 3-(4-(7H-pyrrolo[2,3-d]pyrimidin-4-yl)-1H-pyrazol-1-yl)-4-(4-(3-chloro-5-(trifluoromethoxy)benzoyl)piperazin-1-yl)butanenitrile]	–	–	10 to 50 nM	50 to 100 nM
N#CCC(CN1CCCN(S(=O)(=O)c2ccccc2C#N)CC1)n1cc(-c2ncnc3[nH]ccc23)cn1 (stereo not shown) [Example 102, 2-[(4-{3-cyano-2-[4-(7H-pyrrolo[2,3-d]pyrimidin-4-yl)-1H-pyrazol-1-yl]propyl}-1,4-diazepan-1-yl)sulfonyl]benzonitrile]	20 to 50 nM	50 to 100 nM	–	–
N#CCC(CN1CCCN(C(=O)c2ccc(Cl)cc2F)CC1)n1cc(-c2ncnc3[nH]ccc23)cn1 (stereo not shown) [Example 100, 4-[4-(4-chloro-2-fluorobenzoyl)-1,4-diazepan-1-yl]-3-[4-(7H-pyrrolo[2,3-d]pyrimidin-4-yl)-1H-pyrazol-1-yl]butanenitrile]	< 20 nM	20 to 50 nM	–	–
N#CCC(CN1CCN(C(=O)c2ccc(F)cc2)CC1)n1cc(-c2ncnc3[nH]ccc23)cn1 (stereo not shown) [Example 36, 3-(4-(7H-pyrrolo[2,3-d]pyrimidin-4-yl)-1H-pyrazol-1-yl)-4-(4-(4-fluorobenzoyl)piperazin-1-yl)butanenitrile]	–	–	< 10 nM	10 to 50 nM
N#CCC(CN1CCN(C(=O)c2c(F)cc(Cl)cc2F)CC1)n1cc(-c2ncnc3[nH]ccc23)cn1 (stereo not shown) [Example 27, 3-(4-(7H-pyrrolo[2,3-d]pyrimidin-4-yl)-1H-pyrazol-1-yl)-4-(4-(4-chloro-2,6-difluorobenzoyl)piperazin-1-yl)butanenitrile]	–	–	< 10 nM	< 10 nM
C[C@H]1CN(C(=O)c2ccc(C#N)cc2F)CCN1CC(CC#N)n1cc(-c2ncnc3[nH]ccc23)cn1 (single isomer, unassigned) [25, S-2]	–	–	< 10 nM	> 100 nM
C[C@H]1CN(CC(CC#N)n2cc(-c3ncnc4[nH]ccc34)cn2)CCN1C(=O)c1ccc(C#N)cc1F (mixture of isomers) [Example 162, 4-[((2S)-4-{3-cyano-2-[4-(7H-pyrrolo[2,3-d]pyrimidin-4-yl)-1H-pyrazol-1-yl]propyl}-2-methylpiperazin-1-yl)carbonyl]-3-fluorobenzonitrile]	20 to 50 nM	> 100 nM	–	–
Cc1c(Nc2ccc(F)cc2F)ncnc1N1CCC(C(CC#N)n2cc(-c3ncnc4[nH]ccc34)cn2)CC1 (stereo not shown) [Example 155, 3-(4-(7H-pyrrolo[2,3-d]pyrimidin-4-yl)-1H-pyrazol-1-yl)-3-(1-(6-(2,4-difluorophenylamino)-5-methylpyrimidin-4-yl)piperidin-4-yl)propanenitrile]	< 20 nM	> 100 nM	–	–
Cc1cc(S(=O)(=O)N2CCN(CC(C)n3cc(-c4ncnc5[nH]ccc45)cn3)CC2)c(C(F)(F)F)o1 (stereo not shown) [Example 92, 4-{1-[1-methyl-2-(4-{[5-methyl-2-(trifluoromethyl)-3-furyl]sulfonyl}piperazin-1-yl)ethyl]-1H-pyrazol-4-yl}-7H-pyrrolo[2,3-d]pyrimidine]	20 to 50 nM	> 100 nM	–	–
N#CCC(CN1CCN(C(=O)c2ccc(C#N)cc2F)CC1C(F)F)n1cc(-c2ncnc3[nH]ccc23)cn1 (single isomer, unassigned) [Example 159—peak 3, 4-{[4-{3-cyano-2-[4-(7H-pyrrolo[2,3-d]pyrimidin-4-yl)-1H-pyrazol-1-yl]propyl}-3-(difluoromethyl)piperazin-1-yl]carbonyl}-3-fluorobenzonitrile]	< 20 nM	20 to 50 nM	–	–
N#CCC(CN1CCN(C(=O)c2ccc(C(F)(F)F)c(F)c2)CC1)n1cc(-c2ncnc3[nH]ccc23)cn1 (stereo not shown) [Example 56, 3-(4-(7H-pyrrolo[2,3-d]pyrimidin-4-yl)-1H-pyrazol-1-yl)-4-(4-(3-fluoro-4-(trifluoromethyl)benzoyl)piperazin-1-yl)butanenitrile]	–	–	10 to 50 nM	> 100 nM
COc1cscc1C(=O)N1CCN(CC(CC#N)n2cc(-c3ncnc4[nH]ccc34)cn2)CC1 (stereo not shown) [Example 52, 3-(4-(7H-pyrrolo[2,3-d]pyrimidin-4-yl)-1H-pyrazol-1-yl)-4-(4-(4-methoxythiophene-3-carbonyl)piperazin-1-yl)butanenitrile]	–	–	10 to 50 nM	50 to 100 nM
CCC(CN1CCN(S(=O)(=O)c2cccc(C#N)c2)CC1)n1cc(-c2ncnc3[nH]ccc23)cn1 (stereo not shown) [Example 139, 3-(4-(2-(4-(7H-pyrrolo[2,3-d]pyrimidin-4-yl)-1H-pyrazol-1-yl)butyl)piperazin-1-ylsulfonyl)benzonitrile]	20 to 50 nM	> 100 nM	–	–
CCC(CN1CCN(S(=O)(=O)c2ccc(C#N)cc2)CC1)n1cc(-c2ncnc3[nH]ccc23)cn1 (stereo not shown) [Example 129, 4-(4-(2-(4-(7H-pyrrolo[2,3-d]pyrimidin-4-yl)-1H-pyrazol-1-yl)butyl)piperazin-1-ylsulfonyl)benzonitrile]	20 to 50 nM	50 to 100 nM	–	–
N#CCC(CN1CCN(C(=O)c2ccc(F)c(C(F)(F)F)c2)CC1)n1cc(-c2ncnc3[nH]ccc23)cn1 (stereo not shown) [Example 57, 3-(4-(7H-pyrrolo[2,3-d]pyrimidin-4-yl)-1H-pyrazol-1-yl)-4-(4-(4-fluoro-3-(trifluoromethyl)benzoyl)piperazin-1-yl)butanenitrile]	–	–	10 to 50 nM	> 100 nM
COc1ccc(C(=O)N2CCN(CC(CC#N)n3cc(-c4ncnc5[nH]ccc45)cn3)CC2)c(F)c1F (stereo not shown) [Example 34, 3-(4-(7H-pyrrolo[2,3-d]pyrimidin-4-yl)-1H-pyrazol-1-yl)-4-(4-(2,3-difluoro-4-methoxybenzoyl)piperazin-1-yl)butanenitrile]	–	–	< 10 nM	10 to 50 nM
N#CCC(CN1CCN(C(=O)c2ccc(F)c(OC(F)(F)F)c2)CC1)n1cc(-c2ncnc3[nH]ccc23)cn1 (stereo not shown) [Example 49, 3-(4-(7H-pyrrolo[2,3-d]pyrimidin-4-yl)-1H-pyrazol-1-yl)-4-(4,-(4-fluoro-3-(trifluoromethoxy)benzoyl)piperazin-1-yl)butanenitrile]	–	–	10 to 50 nM	> 100 nM
CCC(CN1CCN(C(=O)c2cccc(F)c2F)CC1)n1cc(-c2ncnc3[nH]ccc23)cn1 (stereo not shown) [Example 120, (4-(2-(4-(7H-pyrrolo[2,3-d]pyrimidin-4-yl)-1H-pyrazol-1-yl)butyl)piperazin-1-yl)(2,3-difluorophenyl)methanone]	20 to 50 nM	50 to 100 nM	–	–
N#CCC(CN1CCN(C(=O)c2ccc(C(F)F)cc2F)CC1)n1cc(-c2ncnc3[nH]ccc23)cn1 (stereo not shown) [Example 14, 4-{4-[4-(difluoromethyl)-2-fluorobenzoyl]piperazin-1-yl}-3-[4-(7H-pyrrolo[2,3-d]pyrimidin-4-yl)-1H-pyrazol-1-yl]butanenitrile]	–	–	< 10 nM	10 to 50 nM
CCC(CN1CCN(S(=O)(=O)c2ccccc2)CC1)n1cc(-c2ncnc3[nH]ccc23)cn1 (stereo not shown) [Example 127, 4-(1-(1-(4-(phenylsulfonyl)piperazin-1-yl)butan-2-yl)-1H-pyrazol-4-yl)-7H-pyrrolo[2,3-d]pyrimidine]	< 20 nM	20 to 50 nM	–	–
N#CCC(CN1CCCN(C(=O)c2ccc(F)cc2F)CC1)n1cc(-c2ncnc3[nH]ccc23)cn1 (stereo not shown) [Example 99, 4-[4-(2,4-difluorobenzoyl)-1,4-diazepan-1-yl]-3-[4-(7H-pyrrolo[2,3-d]pyrimidin-4-yl)-1H-pyrazol-1-yl]butanenitrile]	20 to 50 nM	50 to 100 nM	–	–
Cc1cc(F)ccc1NC(=O)N1CCN(CC(CC#N)n2cc(-c3ncnc4[nH]ccc34)cn2)CC1 (stereo not shown) [Example 23, 4-(2-(4-(7H-pyrrolo[2,3-d]pyrimidin-4-yl)-1H-pyrazol-1-yl)-3-cyanopropyl)-N-(4-fluoro-2-methylphenyl)piperazine-1-carboxamide]	–	–	10 to 50 nM	> 100 nM
N#CCC(CN1CCN(C(=O)c2ncc(Cl)cc2F)CC1)n1cc(-c2ncnc3[nH]ccc23)cn1 (stereo not shown) [Example 16, 4-{4-[(5-chloro-3-fluoropyridin-2-yl)carbonyl]piperazin-1-yl}-3-[4-(7H-pyrrolo[2,3-d]pyrimidin-4-yl)-1H-pyrazol-1-yl]butanenitrile]	–	–	< 10 nM	< 10 nM
N#CCC(CN1CCN(C(=O)c2ccc(C(F)(F)F)cc2F)CC1)n1cc(-c2ncnc3[nH]ccc23)cn1 (stereo not shown) [Example 45, 3-(4-(7H-pyrrolo[2,3-d]pyrimidin-4-yl)-1H-pyrazol-1-yl)-4-(4-(2-fluoro-4-(trifluoromethyl)benzoyl)piperazin-1-yl)butanenitrile trifluoroacetate salt]	–	–	< 10 nM	10 to 50 nM
N#CCC(C1CCN(c2cc(Oc3ccccc3)ncn2)CC1)n1cc(-c2ncnc3[nH]ccc23)cn1 (stereo not shown) [Example 151, 3-(4-(7H-pyrrolo[2,3-d]pyrimidin-4-yl)-1H-pyrazol-1-yl)-3-(1-(6-phenoxypyrimidin-4-yl)piperidin-4-yl)propanenitrile]	< 20 nM	50 to 100 nM	–	–
